Five compounds from ChEMBL document CHEMBL1154851, “Synthesis, antibacterial and antifungal activities of 6,5 fused steroidal oxazoles in cholestane series” (2010) can be followed below.

In brackets after ≈: the same amount, converted by molar mass.

In test [1] the test system is Salmonella enterica. In words: Antimicrobial activity against Salmonella Typhimurium after 18 hrs by disk diffusion method. It is filed as functional, Salmonella enterica subsp. enterica serovar Typhimurium.
For test [2], the system named is Bacillus subtilis. Nature of the test: Antimicrobial activity against Bacillus subtilis after 18 hrs by disk diffusion method. It is filed as functional.
The test system of test [3] is Bacillus subtilis. In words: Antimicrobial activity against Bacillus subtilis after 18 hrs by macrodilution test. It is filed as functional.
The subject of test [4] is Nakaseomyces glabratus. Nature of the test: Antimicrobial activity against Candida glabrata at 100 ug/ml after 48 hrs by disk diffusion method. It is filed as functional. The following applies: read-out: DIZ.
Test [5] has as its system Aspergillus niger. In words: Antimicrobial activity against Aspergillus niger at 100 ug/ml after 48 hrs by disk diffusion method. It is filed as functional. The following applies: read-out: DIZ. In general terms: In agar diffusion tests the substance spreads into inoculated agar from a disc or well.
The test system of test [6] is Escherichia coli. In words: Antimicrobial activity against Escherichia coli after 18 hrs by disk diffusion method. It is filed as functional.
Test [7] deals with Staphylococcus aureus. In words: Antimicrobial activity against Staphylococcus aureus after 18 hrs by macrodilution test. It is filed as functional.
Test [8] deals with Pseudomonas aeruginosa. In words: Antimicrobial activity against Pseudomonas aeruginosa after 18 hrs by macrodilution test. It is filed as functional.
For test [9], the system named is Salmonella enterica. In words: Antimicrobial activity against Salmonella Typhimurium after 18 hrs by macrodilution test. It is filed as functional, Salmonella enterica subsp. enterica serovar Typhimurium.
Test [10] deals with Fusarium oxysporum. In words: Antimicrobial activity against Fusarium oxysporum at 100 ug/ml after 48 hrs by disk diffusion method. The settings on record: read-out: DIZ. It is filed as functional.
Test [11] relates to Candida albicans. In words: Antimicrobial activity against Candida albicans at 100 ug/ml after 48 hrs by disk diffusion method. It is filed as functional. The following applies: read-out: DIZ.
The test system of test [12] is Streptococcus pyogenes. In words: Antimicrobial activity against Streptococcus pyogenes after 18 hrs by macrodilution test. It is filed as functional.
The test system of test [13] is Streptococcus pyogenes. In words: Antimicrobial activity against Streptococcus pyogenes after 18 hrs by disk diffusion method. It is filed as functional.
Test [14] concerns Staphylococcus aureus. Nature of the test: Antimicrobial activity against Staphylococcus aureus after 18 hrs by disk diffusion method. It is filed as functional.
For test [15], the system named is Penicillium. In words: Antimicrobial activity against Penicillium at 100 ug/ml after 48 hrs by disk diffusion method. The settings on record: read-out: DIZ. It is filed as functional.
Test [16] has as its system Escherichia coli. Nature of the test: Antimicrobial activity against Escherichia coli after 18 hrs by macrodilution test. It is filed as functional.
The test system of test [17] is Pseudomonas aeruginosa. Nature of the test: Antimicrobial activity against Pseudomonas aeruginosa after 18 hrs by disk diffusion method. It is filed as functional.
For test [18], the system named is Nakaseomyces glabratus. Nature of the test: Antimicrobial activity against Candida glabrata at 30 ug after 48 hrs by disk diffusion method. It is filed as functional, organism-based.
The test system of test [19] is Aspergillus niger. Nature of the test: Antimicrobial activity against Aspergillus niger at 30 ug after 48 hrs by disk diffusion method. It is filed as functional, organism-based.
Test [20] deals with Fusarium oxysporum. In words: Antimicrobial activity against Fusarium oxysporum at 30 ug after 48 hrs by disk diffusion method. It is filed as functional, organism-based.
In test [21] the test system is Penicillium. In words: Antimicrobial activity against Penicillium at 30 ug after 48 hrs by disk diffusion method. It is filed as functional, organism-based.
Test [22] concerns Candida albicans. Nature of the test: Antimicrobial activity against Candida albicans at 30 ug after 48 hrs by disk diffusion method. It is filed as functional, organism-based.

Turning to `CC(C)CCC[C@@H](C)[C@H]1CC[C@H]2[C@@H]3C=C4N=C(N)O[C@@]45CCCC[C@]5(C)[C@H]3CC[C@]12C`, the “inhibition zone (IZ)” value is 11.5 mm in the test on Salmonella enterica [1]; 12.1 mm in the test on Bacillus subtilis [2]; 13.1 mm in the test with Escherichia coli [6]; 11.2 mm in the test with Streptococcus pyogenes [13]; 10.8 mm in the test on Staphylococcus aureus [14]; 13.5 mm in the test on Pseudomonas aeruginosa [17]. Moreover, the MIC against Bacillus subtilis [3] was 128 µg/mL (≈ 300 µM); in the test with Staphylococcus aureus [7] it was 128 µg/mL (≈ 300 µM); against Pseudomonas aeruginosa [8], 128 µg/mL (≈ 300 µM); against Salmonella enterica [9] it was 128 µg/mL (≈ 300 µM); against Streptococcus pyogenes [12] it was 256 µg/mL (≈ 600 µM); against Escherichia coli [16], 256 µg/mL (≈ 600 µM). Besides, the zone of inhibition at 100 µg/mL in the test on Nakaseomyces glabratus [4] was 9.2 mm; in the test on Aspergillus niger [5] it was 10.1 mm; in the test on Fusarium oxysporum [10], 10.1 mm; in the test with Candida albicans [11] it was 19.1 mm; with Penicillium [15], 14.5 mm.
Take `CC(=O)O[C@H]1CC[C@]2(C)[C@H]3CC[C@]4(C)[C@@H]([C@H](C)CCCC(C)C)CC[C@H]4[C@@H]3C=C3N=C(N)O[C@@]32C1`: the “inhibition zone (IZ)” value came to 13.2 mm with Salmonella enterica [1]; 13.1 mm in the test with Bacillus subtilis [2]; 14.1 mm with Escherichia coli [6]; 12.5 mm in the test on Streptococcus pyogenes [13]; 12.8 mm in the test with Staphylococcus aureus [14]; 15 mm in the test on Pseudomonas aeruginosa [17]. Moreover, the MIC in the test with Bacillus subtilis [3] was 32 µg/mL (≈ 66 µM); against Staphylococcus aureus [7], 128 µg/mL (≈ 264 µM); against Pseudomonas aeruginosa [8], 64 µg/mL (≈ 132 µM); against Salmonella enterica [9], 128 µg/mL (≈ 264 µM); in the test on Streptococcus pyogenes [12], 128 µg/mL (≈ 264 µM); with Escherichia coli [16], 128 µg/mL (≈ 264 µM). Moreover, the zone of inhibition at 100 µg/mL is 10.1 mm with Nakaseomyces glabratus [4]; 11.2 mm in the test on Aspergillus niger [5]; 12.1 mm in the test with Fusarium oxysporum [10]; 20.1 mm with Candida albicans [11]; 15.1 mm with Penicillium [15].
As for `O=C(N[C@H](CO)[C@H](O)c1ccc([N+](=O)[O-])cc1)C(Cl)Cl` [CHLORAMPHENICOL], the “inhibition zone (IZ)” value came out at 25.2 mm in the test with Salmonella enterica [1]; 26.8 mm in the test on Bacillus subtilis [2]; 20 mm with Escherichia coli [6]; 22.4 mm with Streptococcus pyogenes [13]; 21 mm in the test on Staphylococcus aureus [14]; 17.1 mm with Pseudomonas aeruginosa [17]. Besides, the MIC in the test with Bacillus subtilis [3], in the test with Staphylococcus aureus [7], in the test on Pseudomonas aeruginosa [8], with Salmonella enterica [9], with Streptococcus pyogenes [12] and against Escherichia coli [16] was 32 µg/mL (≈ 99 µM) throughout.
For NYSTATIN, the inhibition zone (IZ) in the test with Nakaseomyces glabratus [18] was found to be 29 mm; with Aspergillus niger [19] it was 19.5 mm; in the test on Fusarium oxysporum [20], 19.5 mm; in the test on Penicillium [21], 24.5 mm; in the test on Candida albicans [22] it was 29 mm.
With `CC(C)CCC[C@@H](C)[C@H]1CC[C@H]2[C@@H]3C=C4N=C(N)O[C@@]45C[C@@H](Cl)CC[C@]5(C)[C@H]3CC[C@]12C`, the “inhibition zone (IZ)” value turned out to be 14.1 mm with Salmonella enterica [1]; 15.2 mm in the test on Bacillus subtilis [2]; 16.1 mm in the test on Escherichia coli [6]; 15.1 mm with Streptococcus pyogenes [13]; 15.1 mm in the test on Staphylococcus aureus [14]; 16.5 mm in the test with Pseudomonas aeruginosa [17]. Further, the MIC in the test with Bacillus subtilis [3] turned out to be 64 µg/mL (≈ 139 µM); in the test with Staphylococcus aureus [7], 64 µg/mL (≈ 139 µM); with Pseudomonas aeruginosa [8], 64 µg/mL (≈ 139 µM); against Salmonella enterica [9], 64 µg/mL (≈ 139 µM); against Streptococcus pyogenes [12] it was 128 µg/mL (≈ 278 µM); against Escherichia coli [16], 128 µg/mL (≈ 278 µM). For the same compound, the zone of inhibition at 100 µg/mL in the test with Nakaseomyces glabratus [4] was determined as 15.2 mm; in the test with Aspergillus niger [5], 12.5 mm; with Fusarium oxysporum [10], 13.1 mm; with Candida albicans [11], 21.5 mm; in the test on Penicillium [15] it was 16.2 mm.

In general, MIC refers to the least concentration at which growth counts as inhibited. A lower MIC goes with a more susceptible organism.
